Test results: patent US12240841B2, “FXR small molecule agonist and preparation method therefor and use thereof” (Shanghai Institute of Materia Medica, Chinese Academy of …, priority 2019, dated 2025)
Like-named read-outs stand apart in the source and are kept apart here.

Key:
[1] = tested on: CCL4-induced hepatic fibrosis model mice; assay: CCL4-induced hepatic fibrosis model mice; type: in vivo, mouse
Experimental: In this experiment, CCL4 induced hepatic fibrosis model mice were used to investigate the effect of long-term oral administration of compound 8 on hepatic fibrosis in the model mice.
Experimental method: Male C57BL/6j mice were injected intraperitoneally with 2 mL/kg, 10% CCl4 (dissolved in olive oil) three times a week to induce liver fibrosis model. Two weeks after the model was made, the blood was taken from the retro-ocular venous plexus of the mice to detect serum ALT, AST, TBA and LDH indicators. According to ALT, AST, TBA, LDH, body weight and other indicators, the mice were randomly divided into 5 groups. […] During the administration period, the animals' food intake and body weight were monitored. After 3 weeks of administration, the blood was taken from the retro-ocular venous plexus of the mice to detect serum ALT, AST, TBA and LDH indicators. After 6 weeks of administration, the blood was taken from the retro-ocular venous plexus and the mice were dislocated and sacrificed. The livers were taken out and weighed. Part of the liver was fixed with 4% paraformaldehyde, and part of the liver was frozen at −80° C. During the whole experiment, another 10 mice in the same cage were intraperitoneally injected with the same volume of olive oil as the system normal control group (WT).
This experiment detected indicators such as the levels of liver function indicators ALT, AST, TBA, LDH in serum, the expression of α-SMA and Col1α1 gene levels in the liver, and the pathological changes of the liver (Sirius scarlet stain), etc., thereby reflecting whether the compound has the effect of relieving liver fibrosis.

[2] = molecular target: T1, recombinant GST-FXR fusion protein (Homo sapiens, UniProt Q96RI1); assay: FXR activity at the molecular level (AlphaScreen); type: biochemical
T1 sequence (Q96RI1 1-486): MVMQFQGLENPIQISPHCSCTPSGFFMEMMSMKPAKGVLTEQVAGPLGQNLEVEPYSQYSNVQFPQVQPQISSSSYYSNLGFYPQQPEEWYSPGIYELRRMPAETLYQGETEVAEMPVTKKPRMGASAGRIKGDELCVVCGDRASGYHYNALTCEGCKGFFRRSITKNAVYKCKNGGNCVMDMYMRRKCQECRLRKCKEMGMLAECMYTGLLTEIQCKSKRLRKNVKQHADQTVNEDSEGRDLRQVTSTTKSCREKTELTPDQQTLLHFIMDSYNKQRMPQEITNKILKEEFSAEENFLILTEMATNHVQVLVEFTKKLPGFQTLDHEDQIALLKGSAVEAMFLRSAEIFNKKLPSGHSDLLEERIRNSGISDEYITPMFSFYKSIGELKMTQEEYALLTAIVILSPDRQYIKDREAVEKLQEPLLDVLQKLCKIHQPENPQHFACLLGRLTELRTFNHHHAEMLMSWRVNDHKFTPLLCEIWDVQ
Experimental: Test Method for FXR Activity at the Molecular Level
FXR activity was determined using recombinant GST-FXR fusion protein by Perkin Elmer's AlphaScreen detection reagent. The reaction in this method was carried out in a 384-well plate, and the total reaction volume was 15 μL. The mixture of protein, agonist, co-regulatory factor, AlphaScreen® acceptor beads and AlphaScreen® donor beads was reacted in a buffer containing Tris-HCl 50 mM (pH7.4), 50 mM NaCl, BSA 0.1%, and 1 mM DTT. The FXR activity was reflected by the fluorescence signal intensity at 570 nm wavelength detected by the Envision fluorescence detector. The value of EC50 was calculated by the software Graphpad Prism 5.

FXR receptor = molecular target: T2, FXR receptor (Homo sapiens, UniProt Q96RI1); assay: FXR activity at the cell level (FXRE luciferase reporter in 293T cells); type: cell-based; conditions: for Activity relative to OCA (%) 10 μM: luciferase reporter
T2 construct: expressed in transfected cells; host or cells: 293T cells
T2 sequence (Q96RI1 1-486): T1 sequence (Q96RI1 1-486)
Experimental: The cells were cultured for 24 hours to ensure plasmid expression. Then the FXR receptor agonist to be tested was added and acted for 18 hours. The fluorescence intensity was detected using luciferase kit (steady-Glo Luciferase Assay system) to reflect the compound's activation efficiency on the FXR receptor. […] The appropriate concentration interval was selected, and the dose-dependent relationship, that is, the EC50 value, was calculated.

[3] = high-dose 20 mg/kg oral once a day, 6 weeks
[4] = low-dose 6 mg/kg oral once a day, 6 weeks
[5] = 293T cells, FXRE luciferase reporter, read-out: EC50 (cell level)

Structure (SMILES)	EC50 [2] [nM]	Activity relative to OCA (%) 10 μM (FXR receptor; 293T cells) [%]	EC50 (FXR receptor; [5]) [nM]	further results
O=c1[nH]c(-c2ccc(N3CCC(OCc4c(-c5ccccc5C(F)(F)F)noc4C4CC4)CC3)cc2)no1 [Example 8]	104	88	5	collagen content in the liver (Sirius scarlet stained sections) ([1]; high-dose 20 mg/kg): significantly reduced; effect on LDH in serum [1, 3]: little effect; level of ALT in serum [1, 3]: significantly reduced; level of AST in serum [1, 3]: significantly reduced; level of TBA in serum [1, 3]: significantly reduced; expression of col1α1 in the liver ([1]; high-dose 20 mg/kg, 6 weeks): down-regulated; expression of α-SMA in the liver ([1]; high-dose 20 mg/kg, 6 weeks): significantly down-regulated; effect on liver fibrosis (summary) ([1]; long-term administration): a certain alleviating effect; collagen content in the liver (Sirius scarlet stained sections) ([1]; low-dose 6 mg/kg): significantly reduced; effect on liver collagen content compared with the low-dose OCA group ([1]; low-dose 6 mg/kg): slightly better; effect on LDH in serum [1, 4]: little effect; level of ALT in serum [1, 4]: significantly reduced; level of AST in serum [1, 4]: significantly reduced; level of TBA in serum [1, 4]: significantly reduced; effect on serum liver function indicators compared with the low-dose OCA group ([1]; low-dose 6 mg/kg, 6 weeks): slightly better
O=c1[nH]c(-c2ccc(N3CCC(OCc4c(-c5ccccc5C(F)(F)F)noc4C4CC4)CC3)cn2)no1 [Example 22]	386	108	1.99	–
O=c1[nH]c(-c2ccc(N3CCC(OCc4c(-c5ccccc5C(F)(F)F)noc4C4CC4)CC3)c(F)c2)no1 [Example 23]	392	109	2.22	–
O=c1[nH]c(-c2ccc(N3CCC(OCc4c(-c5ccccc5C(F)(F)F)noc4C4CC4)CC3)cc2F)no1 [Example 24]	59	105	0.196	–
O=c1[nH]c(-c2c(F)cc(N3CCC(OCc4c(-c5ccccc5C(F)(F)F)noc4C4CC4)CC3)cc2F)no1 [Example 25]	84.7	103	0.12	–
O=c1[nH]c(-c2ccc(N3CCC(OCc4c(-c5ccccc5OC(F)(F)F)noc4C4CC4)CC3)nc2)no1 [Example 26]	70	103	0.254	–
O=c1[nH]c(-c2ccc(N3CCC(OCc4c(-c5ccccc5OC(F)(F)F)noc4C4CC4)CC3)cn2)no1 [Example 27]	20.9	106	0.357	–
O=c1[nH]c(-c2ccc(N3CCC(OCc4c(-c5ccccc5OC(F)(F)F)noc4C4CC4)CC3)c(F)c2)no1 [Example 28]	380	107	0.617	–
O=c1[nH]c(-c2ccc(N3CCC(OCc4c(-c5ccccc5OC(F)(F)F)noc4C4CC4)CC3)cc2F)no1 [Example 29]	108	120	0.938	–
O=c1[nH]c(-c2c(F)cc(N3CCC(OCc4c(-c5ccccc5OC(F)(F)F)noc4C4CC4)CC3)cc2F)no1 [Example 30]	89	120	0.255	–
O=c1[nH]c(-c2ccc(N3C4CCC3CC(OCc3c(-c5c(F)cccc5F)noc3C3CC3)C4)nc2)no1 (stereo not shown) [Example 31]	11.3	116	0.608	–
O=c1[nH]c(-c2ccc(N3C4CCC3CC(OCc3c(-c5c(Cl)cccc5Cl)noc3C3CC3)C4)nc2)no1 (stereo not shown) [Example 32]	4.33	103	0.0783	–
O=c1[nH]c(-c2ccc(N3C4CCC3CC(OCc3c(-c5ccccc5C(F)(F)F)noc3C3CC3)C4)nc2)no1 (stereo not shown) [Example 33]	18.8	141	0.387	–
O=c1[nH]c(-c2ccc(N3C4CCC3CC(OCc3c(-c5ccccc5OC(F)(F)F)noc3C3CC3)C4)nc2)no1 (stereo not shown) [Example 34]	19.7	122	0.388	–
O=c1[nH]c(-c2ccc(N3C4CCC3CC(OCc3c(-c5c(F)cccc5F)noc3C3CC3)C4)cc2F)no1 (stereo not shown) [Example 35]	18.5	117	0.318	–
O=c1[nH]c(-c2ccc(N3C4CCC3CC(OCc3c(-c5c(Cl)cccc5Cl)noc3C3CC3)C4)cc2F)no1 (stereo not shown) [Example 36]	4.22	102	–	EC50 (FXR receptor): 0.0317 nM
O=c1[nH]c(-c2ccc(N3C4CCC3CC(OCc3c(-c5ccccc5C(F)(F)F)noc3C3CC3)C4)cc2F)no1 (stereo not shown) [Example 37]	50.6	102	0.284	–
O=c1[nH]c(-c2ccc(N3C4CCC3CC(OCc3c(-c5ccccc5OC(F)(F)F)noc3C3CC3)C4)cc2F)no1 (stereo not shown) [Example 38]	51.3	102	0.304	–
O=c1[nH]c(-c2ccc(N3C4CCC3CC(OCc3c(-c5ccccc5OC(F)F)noc3C3CC3)C4)nc2)no1 (stereo not shown) [Example 39]	25	108	1.49	–
Cc1ccccc1-c1noc(C2CC2)c1COC1CC2CCC(C1)N2c1ccc(-c2noc(=O)[nH]2)cn1 (stereo not shown) [Example 40]	94.4	105	2.11	–
O=c1[nH]c(-c2ccc(N3C4CCC3CC(OCc3c(-c5ccccc5OC(F)F)noc3C3CC3)C4)cc2F)no1 (stereo not shown) [Example 41]	28.5	108	0.718	–
Cc1ccccc1-c1noc(C2CC2)c1COC1CC2CCC(C1)N2c1ccc(-c2noc(=O)[nH]2)c(F)c1 (stereo not shown) [Example 42]	80.4	106	0.96	–
CC[C@H]1[C@@H](O)[C@@H]2[C@H](CC[C@]3(C)[C@@H]([C@H](C)CCC(=O)O)CC[C@@H]23)[C@@]2(C)CC[C@@H](O)C[C@@H]12 [OCA, reference compound]	–	–	–	level of ALT in serum [1, 3]: significantly reduced; level of AST in serum [1, 3]: significantly reduced; level of TBA in serum [1, 3]: significantly reduced; level of TBA in serum [1, 4]: lowering effect
